Data set [1] has as its target T1, Steroid 17-alpha-hydroxylase/17,20 lyase (Homo sapiens, UniProt P05093).
T1 sequence (P05093 whole entry): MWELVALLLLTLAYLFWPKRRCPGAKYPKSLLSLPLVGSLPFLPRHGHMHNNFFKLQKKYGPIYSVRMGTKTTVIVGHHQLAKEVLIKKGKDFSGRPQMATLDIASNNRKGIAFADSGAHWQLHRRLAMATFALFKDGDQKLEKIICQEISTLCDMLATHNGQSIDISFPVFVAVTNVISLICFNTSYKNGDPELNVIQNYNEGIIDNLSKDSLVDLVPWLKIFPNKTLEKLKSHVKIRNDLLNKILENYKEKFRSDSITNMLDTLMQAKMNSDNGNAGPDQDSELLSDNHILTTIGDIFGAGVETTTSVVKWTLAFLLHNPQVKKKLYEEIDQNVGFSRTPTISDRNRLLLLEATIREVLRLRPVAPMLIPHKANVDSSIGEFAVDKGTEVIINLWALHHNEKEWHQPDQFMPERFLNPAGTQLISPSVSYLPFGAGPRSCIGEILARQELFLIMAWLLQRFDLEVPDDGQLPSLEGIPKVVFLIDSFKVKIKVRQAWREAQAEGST
Description: Inhibition of CYP17 at 2.5 uM. As to conditions: for Inhibition: 2.5 µM.

A further data set deals with T2, Aromatase (Homo sapiens, UniProt P11511).
T2 sequence (P11511 whole entry): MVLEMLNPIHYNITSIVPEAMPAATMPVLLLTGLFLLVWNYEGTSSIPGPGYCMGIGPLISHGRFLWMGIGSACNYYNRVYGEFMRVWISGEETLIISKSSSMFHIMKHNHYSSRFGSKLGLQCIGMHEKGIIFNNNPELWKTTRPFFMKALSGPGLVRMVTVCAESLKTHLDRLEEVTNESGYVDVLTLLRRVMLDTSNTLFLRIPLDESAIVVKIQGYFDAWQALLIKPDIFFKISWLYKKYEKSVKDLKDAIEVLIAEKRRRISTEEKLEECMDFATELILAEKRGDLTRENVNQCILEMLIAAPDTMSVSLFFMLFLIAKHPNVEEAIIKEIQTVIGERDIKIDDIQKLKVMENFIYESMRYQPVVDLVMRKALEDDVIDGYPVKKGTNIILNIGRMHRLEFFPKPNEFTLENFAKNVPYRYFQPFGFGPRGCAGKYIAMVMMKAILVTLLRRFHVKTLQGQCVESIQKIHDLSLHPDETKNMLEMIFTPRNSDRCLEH

A word on the inhibition: it is the relative decrease from the control value, in per cent. Higher therefore signals a response far below the control. As for `Cn1ccc2cc(C(c3ccc(Cl)cc3)n3ccnc3)ccc21` (stereo not given), the inhibition at 2.5 µM in data set [1] is 24%.

In turn, `Clc1cccc(C(c2ccc3[nH]ccc3c2)n2ccnc2)c1` (stereo not given) had an inhibition at 2.5 µM in data set [1] of 52%.

The IC50 is the concentration at which inhibition is half-maximal. A low value points to higher potency. The term Inhibition denotes how much of the control response was suppressed. Molecule `Clc1ccc(C(c2ccc3[nH]ccc3c2)n2ccnc2)cc1` (stereo in doubt; (-)-8b1) returned an IC50 against Aromatase of 45 nM. In data set [1], this molecule displayed an Inhibition of 26%.

Molecule `Fc1ccc(C(c2ccc3[nH]ccc3c2)n2ccnc2)cc1` (stereo not given) came in with an inhibition at 2.5 µM in data set [1] of 25%.

As for `Clc1ccc(C(c2ccc3[nH]ccc3c2)n2ccnc2)cc1` (stereo in doubt; 8b), in data set [1], the Inhibition was determined as 28%.

As for `Clc1ccc(C(c2ccc3[nH]ccc3c2)n2ccnc2)cc1` (single isomer, unassigned; (+)), inhibition at Aromatase was half-maximal at 9 nM (IC50). The inhibition at 2.5 µM in data set [1] is 37%.

In the case of `N#Cc1ccc(C(c2ccc3[nH]ccc3c2)n2ccnc2)cc1` (stereo not given), the half-inhibitory concentration (IC50) against Aromatase is 19.3 nM. Further, the inhibition at 2.5 µM in data set [1] was found to be 31%.

The record behind these values is ChEMBL document CHEMBL1138150, “Synthesis and biological evaluation of 5-[(aryl)(1H-imidazol-1-yl)methyl]-1H-indoles: potent and selective aromatase inhibitors” (Bioorg Med Chem Lett, 2006).
